Reference: patent publication US4814329A, “Antihyperlipoproteinemic 5-substituted sulfur-containing benzimidazole derivatives” (Richter Gedeon Vegyeszeti Gyar R.T., priority 1985, dated 1989)
Where a name gives a salt, the structure may show the parent alone. Read-outs that look alike come from different tables or passages of the source.

What was measured:
[1] = tested on: rats with the cholesterol diet; assay: in vivo test in rats with the cholesterol diet, 10 day treatments (Table 2); settings: rat; for LDL + VLDL percentile change / Serum cholesterol percentile change / triglyceride percentile change / HDL cholesterol percentile change: 10 day treatment
Method: […] (Schurr, P. E.; Schultz, J. R., Day, D. E.; Atherosclerosis Drug Discovery Ed.: C. E. Day, Plenum, New York 215 (1976) and Acta Pharm. Hung., 49, 182. (1979) During this time the total cholesterol level of the serum increased with 200-250% compared to the normal level, while the amount of the HDL chloesterol diminished by 45-50%. Groups consisting of six animals were formed. […] Then after a 18 hour starving the animals were bled to death under etheric narcosis on the 8th day. The blood samples were centrifuged and the serum total cholesterol and the HDL cholesterol were determined by Backmann enzymatic test, while the triglyceride concentration of the serum was determined by Van Handel's method (J. Lab.: Clin. Med. 41, 486 (1953). The amount of the LDL+VLDL was measured by manganese precipitation turbidimetrically (Schurr, P. E., Schulz, J. R., Day, C. E.: Atherosclerosis Drug Discovery Ed.: C. E. Day, Plenum Press, New York 215 (1976). The antiaggreagtion activity was measured in vitro on human plasm being rich in thrombocytes by a Chrono-log aggregometer. The aggregation was induced by ADP, adrenaline, collagen and arachidonic acid. […]. The lipidperoxidation was induced by N-ethyl-alenicimide (Arzneimittel-Forschung 29, 981 (1979).
The affect of compound no. 0202479 to the rats with the
cholesterol diet in 10 day treatments

[2] = acute toxicity, oral, rats; design: species or system male and female rats; settings: rat, in vivo, observed 14 days
Source text: (§1) The acute toxicity of this compound was examined on male and female mice and rats by oral administration.

[3] = tested on: human plasm being rich in thrombocytes; assay: in vitro antiaggregation activity (Chrono-log aggregometer; ADP, adrenaline, collagen, arachidonic acid); type: cell-based; settings: for inhibition at 250 µM / inhibition at 500 µM / inhibition at 1000 µM: Homo sapiens
Source text: Whistar hannover male rats weighing 140-160 g were fed for 7 days with a rat fodder supplemented with 1.5% of cholesterol, 0.5% of sodium cholate and 5% of solid fat. (Schurr, P. E.; Schultz, J. R., Day, D. E.; Atherosclerosis Drug Discovery Ed.: C. E. Day, Plenum, New York 215 (1976) and Acta Pharm. Hung., 49, 182. (1979) During this time the total cholesterol level of the serum increased with 200-250% compared to the normal level, while the amount of the HDL chloesterol diminished by 45-50%. Groups consisting of six animals were formed. The compounds of the invention were administered orally starting on the fourth day of the addition of the cholesterol fodder and it was continued by the end of the experiments, by the seventh day, in one or two doses. Then after a 18 hour starving the animals were bled to death under etheric narcosis on the 8th day. The blood samples were centrifuged and the serum total cholesterol and the HDL cholesterol were determined by Backmann enzymatic test, while the triglyceride concentration of the serum was determined by Van Handel's method (J. Lab.: Clin. Med. 41, 486 (1953). The amount of the LDL+VLDL was measured by manganese precipitation turbidimetrically (Schurr, P. E., Schulz, J. R., Day, C. E.: Atherosclerosis Drug Discovery Ed.: C. E. Day, Plenum Press, New York 215 (1976). The antiaggreagtion activity was measured in vitro on human plasm being rich in thrombocytes by a Chrono-log aggregometer. The aggregation was induced by ADP, adrenaline, collagen and arachidonic acid. The determination of the inhibition of the lipidperoxidation was carried out by thiobarbituric acidic method with the aid of washed human thrombocyte suspension. The lipidperoxidation was induced by N-ethyl-alenicimide (Arzneimittel-Forschung 29, 981 (1979).

[4] = tested on: washed human thrombocyte suspension; assay: inhibition of lipidperoxidation, thiobarbituric acidic method; type: cell-based; settings: induced by N-ethyl-alenicimide, read-out: medium inhibiting concentration, lipidperoxidation
Method: Whistar hannover male rats weighing 140-160 g were fed for 7 days with a rat fodder supplemented with 1.5% of cholesterol, 0.5% of sodium cholate and 5% of solid fat. […] The blood samples were centrifuged and the serum total cholesterol and the HDL cholesterol were determined by Backmann enzymatic test, while the triglyceride concentration of the serum was determined by Van Handel's method (J. Lab.: Clin. Med. 41, 486 (1953). The amount of the LDL+VLDL was measured by manganese precipitation turbidimetrically (Schurr, P. E., Schulz, J. R., Day, C. E.: Atherosclerosis Drug Discovery Ed.: C. E. Day, Plenum Press, New York 215 (1976). The antiaggreagtion activity was measured in vitro on human plasm being rich in thrombocytes by a Chrono-log aggregometer. The aggregation was induced by ADP, adrenaline, collagen and arachidonic acid. […]

[5] = acute toxicity, oral, mice; design: species or system male and female mice; settings: mouse, in vivo, observed 14 days
Source text: as §1

[6] = ADP induced, read-out: Aggregation inhibition, ADP
[7] = adrenaline induced, read-out: Aggregation inhibition, Adrenaline
[8] = collagen induced, read-out: Aggregation inhibition, Collagene

Compound: C=CCSc1nc2ccc(Cc3ccccc3)cc2[nH]1 [compound 0202479, 5-Benzyl-2-(2-propenylthio)-benzimidazole hydrobromide, hydrochloride and base]
- effectiveness, in words [1]: remarkably effective
- LDL + VLDL percentile change ([1]; 10.0 mg/kg p.o.): -20.8 percentile change
- Serum cholesterol percentile change ([1]; 10.0 mg/kg p.o.): -7.8 percentile change
- triglyceride percentile change ([1]; 10.0 mg/kg p.o.): -3.1 percentile change
- HDL cholesterol percentile change ([1]; 10.0 mg/kg p.o., * 0.01 P 0.05): +47.7 percentile change
- HDL cholesterol percentile change ([1]; 30.0 mg/kg p.o.): +40.1 percentile change
- Serum cholesterol percentile change ([1]; 30.0 mg/kg p.o., * 0.01 P 0.05): -41.5 percentile change
- LDL + VLDL percentile change ([1]; 30.0 mg/kg p.o., ** P 0.01): -48.5 percentile change
- triglyceride percentile change ([1]; 30.0 mg/kg p.o., ** P 0.01): -47.7 percentile change
- Serum cholesterol percentile change ([1]; 100.0 mg/kg p.o.): -66.3 percentile change
- HDL cholesterol percentile change ([1]; 100.0 mg/kg p.o., ** P 0.01): +56.1 percentile change
- LDL + VLDL percentile change ([1]; 100.0 mg/kg p.o., ** P 0.01): -80.5 percentile change
- triglyceride percentile change ([1]; 100.0 mg/kg p.o., ** P 0.01): -55.8 percentile change
- LD50 at 336 h [2]: > 2000 mg/kg
- inhibition of aggregation caused by ADP and adrenaline, in words ([3]; ADP and adrenaline): inhibited by the compound-similarly to Clofibrate--in the second phase
- inhibition at 250 µM ([3]; read-out: inhibition of aggregation induced by arachidonic acid): 100%
- inhibition at 250 µM [3, 6]: 20%
- inhibition at 500 µM [3, 6]: 59%
- inhibition at 1000 µM [3, 6]: 66%
- inhibition at 250 µM [3, 7]: 9%
- inhibition at 500 µM [3, 7]: 16%
- inhibition at 1000 µM [3, 7]: 73%
- inhibition at 250 µM ([3]; arachidonic acid induced, read-out: Aggregation inhibition, Arachidonic acid): 100%
- inhibition at 250 µM [3, 8]: 6%
- inhibition at 500 µM [3, 8]: 16%
- inhibition at 1000 µM [3, 8]: 39%
- IC50 [4]: 24 µM
- LD50 at 336 h [5]: 960 mg/kg
